Experimental data from US10568945B2, “Compositions and methods for inducing liver regeneration by administering hepatocyte-derived exosomes” (University of Cincinnati, priority 2014, dated 2020).
“Also recorded” adds a separate entry of the source.

Assays:
[1] = test system: isolated wildtype and CXCR2-deficient hepatocytes; assay: Release of exosomes from isolated hepatocytes (CD81 antigen ELISA); assay type: cell-based, mouse; conditions: GW4869 for 48 hrs
Description: FIG. 2. CXCR2 regulates the neutral sphingomyelinase/ceramide system to release exosomes. (A) CXCR2-deficient cells show higher concentrations of ceramide than wildtype hepatocytes as determined by staining of isolated hepatocytes with Cy3-coupled anti-ceramide antibodies (A, upper panel). The intensity of the fluorescence staining in panel a reflects ceramide levels. […] Data are representative for 4 similar stainings. (B) Ceramide activity in hepatocytes was determined by a ceramide kinase assay. Data are mean±SEM with n=4 per group. *P<0.05 compared to wild-type mice. (C) Neutral sphingomyelinase activity is increased in CXCR2-deficient hepatocytes compared to wild-type mice. Data are mean±SEM with n=4 per group. *P<0.05 compared to wild-type mice. […] Cells were treated with GW4869 for 48 hrs in Williams media supplemented with exosome-depleted FBS and the number of exosomes was determined using differential centrifugation and detection of exosomes using a CD81 antigen ELISA kit. Data are mean±SEM with n=4 per group, *P<0.05 compared to wild-type mice. […]
Exosomes were purified from serum and the culture media. […] The size of exosomes in the serum and the culture medium was determined using a Zetasizer Nano (Malvern Instruments, Malvern, UK) and the number of exosomes was assessed by the CD81-antigen ELISA kit (System Biosciences).

[2] = test system: primary mouse hepatocytes; assay: Hepatocyte proliferation (BrdU incorporation)
Description: (A) Primary mouse hepatocytes from wild-type mice were treated with increasing doses of exosomes derived from wild-type or CXCR2-deficient hepatocytes for 24 hrs. Cell proliferation was determined via BrdU incorporation. Data are mean±SEM with n=8-16 per group. *P<0.05 compared to control mice. **P<0.05 compared to untreated samples.
Hepatocytes were treated with hepatocyte-derived exosomes for 24 hrs. DNA incorporation of 5-bromo-20-deoxyuridine (BrdU) was employed to evaluate hepatocyte proliferation by exosomes, and data were normalized by the amount of viable cells and expressed as a ratio compared with medium alone. A commercial BrdU cell proliferation ELISA system (Abcam, Cambridge, UK) was used for this assay.

[3] = test system: sphingosine-1-phosphate (S1P) in hepatocytes; assay: Measurement of S1P in hepatocytes by ELISA; assay type: cell-based, mouse; conditions: pre-incubation of hepatocytes with SPHK I2 (20 μM)

O=C(/C=C/c1ccc(/C=C/C(=O)Nc2ccc(C3=NCCN3)cc2)cc1)Nc1ccc(C2=NCCN2)cc1 [GW4869]
concentration/release of exosomes from hepatocytes [1]: dose dependently blocked; also recorded: dose-dependently reduced

Nc1ncnc2c1ncn2[C@@H]1O[C@H](COC(=O)c2ccc(S(=O)(=O)F)cc2)[C@@H](O)[C@H]1O [FSBA]
exosome-induced hepatocyte proliferation ([2]; exosomes treated with FSBA, washed, then added to primary hepatocytes): completely blocked

Oc1ccc(Nc2nc(-c3ccc(Cl)cc3)cs2)cc1 [SPHK I2]
exosome-induced production of S1P in hepatocytes [3]: prevented; also recorded: completely blocked
exosome-induced hepatocyte proliferation ([2]; hepatocytes treated with 5-20 μM SPHK I2): completely abrogated
